# From patent US12616704B2, “Cannabichromene formulation for pain management” (Zyus Life Sciences Inc., priority 2020, dated 2026)
# How the values were obtained:
# Format in all cases: in vivo, C57BL/6J mice
# [1] = tested on: Oxaliplatin-induced cool allodynia; test: Acetone Cooling Test (ACT) in oxaliplatin-induced polyneuropathy (OIPN) model; details: CBC 20 mg/kg p.o., Duloxetine 25 mg/kg i.p.
# Protocol: Model Induction—Mouse Oxaliplatin-induced polyneuropathy (OIPN) model was induced over a three-week period. The day of first Oxaliplatin (OXP) injection is referred to as day 0 (DO). OXP was administered as six separate intraperitoneal injections at 4.5-mg/kg (10 ml/kg, i.p.) to Groups 2, 3, and 4 on DO, D4, D8, D12, D16, and D20. The cumulative OXP dose was thus 27 mg/kg. The in-life procedures, such as observations, tests, and/or measurements were performed by Charles River Discovery Services with blinded methods. The mice were distributed into 4 groups (n=8 for Vehicle Control; n=10 OXP Control; n=20 CBC; n=15 Duloxetine).
# Treatments—Following exposure to OXP for 20 days, Groups 3 and 4 were treated with CBC (20 mg/kg, p.o.) and Duloxetine (25 mg/kg, i.p.), respectively, for 10 consecutive days. In a similar regimen Groups 1 and 2 (Vehicle Control and OXP-Vehicle Control, respectively) received a corresponding volume of 5% glucose solution at an administration volume of 10 mL/kg.
# Acetone Cooling Test (ACT) —To produce a measurable cooling sensation, 10-15 μL of acetone was applied onto the medial area of the plantar hind paw with a 0.5 ml insulin syringe. Responses of a mouse to acetone were monitored for 20 s, and a score given based on a four-point scale (0-3 points), according to the response intensity, continuation, and briskness. The higher the score, the greater the cool allodynia sensed by the mouse.
# Within one test timepoint, a total of 3 trials were performed per paw with a minimum gap of 5 min between testing. The three individual scores were added up to obtain a single score over a cumulative period of 60 s. Thus, for one test, the minimum score of one paw is 0 (no cool allodynia), while the maximum possible score is 9 (intensive cool allodynia). The total scores for the left and right paws were averaged to accomplish a single result value per mouse at each timepoint.
# The Acetone Cooling Test was performed prior to OXP administration (Baseline), following the last OXP injection (D21), one day after the first CBC, Duloxetine, or Vehicle treatment (D22), and after a 10-day daily dosing of CBC, Duloxetine, or Vehicle treatment (D31). Taken together, the ACT was used to assess chemotherapy-induce cool allodynia as stated in the schedule:
# On D22: At 60 min after the first Vehicle/CBC dose and 120 min after Dulx dose.
# On D31: At 60 min after the last Vehicle/CBC and 120 min after Dulx dose.
# [2] = Welfare observations in OIPN study; details: Duloxetine 25 mg/kg i.p., OIPN mice
# From the text: Seven mice were disqualified from further study due to showing too mild cool allodynia.
# [3] = Body weight in OIPN study; details: OIPN mice; CBC 20 mg/kg p.o., Duloxetine 25 mg/kg i.p.
# Protocol: Body Weight—Animal body weights were measured before assigning the treatment groups and then on each day of the study. The last body weight measurement was performed upon endpoint sampling. Terminal body weights were not collected from animals found dead or euthanized moribund.
smiles,measurement,setting,value
"CNCC[C@H](Oc1cccc2ccccc12)c1cccs1 [Duloxetine, reference compound]",ACT score compared with OXP-Vehicle control,"[1]; D22, acute single dose",statistically significant and comparable reduction in cool allodynia
same,ACT score compared with OXP-Vehicle control,"[1]; D31, chronic repeated dosing",maintained a significant reduction in cool allodynia
same,"ACT score, D31 vs. D21","[1]; within group, 10-day repeated dosing",significant reduction of cool allodynia
same,"ACT score, reversion of cool allodynia D22 vs. D21 pre-treatment: p","[1]; within group, single dose",< 0.01
same,share of the group with adverse effects (enlarged staring eyes and clearly decreased activity),[2],30%
same,body weight development from D22 onwards,[3],slower increase in body weight
